Measured values: patent US9802920B2, “Inhibitors of bruton's tyrosine kinase” (HOFFMANN-LA ROCHE INC., priority 2013, dated 2017)

What follows are compounds tested against Btk enzyme (His-tagged, full-length) (Homo sapiens (Human), UniProt Q06187) (assay: Bruton's Tyrosine Kinase (Btk) Inhibition Assay, radioactive 33P filtration capture). Conditions: 100 μM ATP, 30 μM peptide substrate; read-out: Radiometric IC50.
Type: biochemical
Excerpt: Bruton's Tyrosine Kinase (Btk) Inhibition Assay
The assay is a capture of radioactive ^33P phosphorylated product through filtration. The interactions of Btk, biotinylated SH2 peptide substrate (Src homology), and ATP lead to phosphorylation of the peptide substrate. Biotinylated product is bound streptavidin sepharose beads. All bound, radiolabeled products are detected by scintillation counter.
Plates assayed are 96-well polypropylene (Greiner) and 96-well 1.2 μm hydrophilic PVDF filter plates (Millipore). Concentrations reported here are final assay concentrations: 10-100 μM compounds in DMSO (Burdick and Jackson), 5-10 nM Btk enzyme (His-tagged, full-length), 30 μM peptide substrate (Biotin-Aca-[…]-NH2), 100 μM ATP (Sigma), 8 mM imidazole (Sigma, pH 7.2), 8 mM glycerol-2-phosphate (Sigma), 200 μM EGTA (Roche Diagnostics), 1 mM MnCl2 (Sigma), 20 mM mgCl2 (Sigma), 0.1 mg/mL BSA (Sigma), 2 mM DTT (Sigma), 1 μCi ^33P ATP (Amersham), 20% streptavidin sepharose beads (Amersham), 50 mM EDTA (Gibco), 2 M NaCl (Gibco), 2 M NaCl w/1% phosphoric acid (Gibco), microscint-20 (Perkin Elmer).
IC50 determinations are calculated from 10 data points per compound utilizing data produced from a standard 96-well plate assay template. One control compound and seven unknown inhibitors were tested on each plate and each plate was run twice. Typically, compounds were diluted in half-log starting at 100 μM and ending at 3 nM. The control compound was staurosporine. Background was counted in the absence of peptide substrate. Total activity was determined in the presence of peptide substrate. The following protocol was used to determine Btk inhibition.
Sample preparation: The test compounds were diluted at half-log increments in assay buffer (imidazole, glycerol-2-phosphate, EGTA, MnCl2, mgCl2, BSA).
1) Rinse beads by centrifuging at 500 g
2) Reconstitute the beads with PBS and EDTA to produce a 20% bead slurry
3) Pre-incubate reaction mix without substrate (assay buffer, DTT, ATP, ^33P ATP) and mix with substrate (assay buffer, DTT, ATP, ^33P ATP, peptide substrate) 30° C. for 15 min.
4) To start assay, pre-incubate 10 μL Btk in enzyme buffer (imidazole, glycerol-2-phosphate, BSA) and 10 μL of test compounds for 10 min at RT.
5) Add 30 μL reaction mixture without or with substrate to Btk and compounds.
6) Incubate 50 μL total assay mix for 30 min at 30° C.
7) Transfer 40 μL of assay to 150 μL bead slurry in filter plate to stop reaction.
8) Wash filter plate after 30 min, with following steps
3×250 μL NaCl containing 1% phosphoric acid
9) Dry plate for 1 h at 65° C. or overnight at RT
10) Add 50 μL microscint-20 and count ^33P cpm on scintillation counter. […]

Chain of Btk enzyme (His-tagged, full-length) (Q06187 whole entry): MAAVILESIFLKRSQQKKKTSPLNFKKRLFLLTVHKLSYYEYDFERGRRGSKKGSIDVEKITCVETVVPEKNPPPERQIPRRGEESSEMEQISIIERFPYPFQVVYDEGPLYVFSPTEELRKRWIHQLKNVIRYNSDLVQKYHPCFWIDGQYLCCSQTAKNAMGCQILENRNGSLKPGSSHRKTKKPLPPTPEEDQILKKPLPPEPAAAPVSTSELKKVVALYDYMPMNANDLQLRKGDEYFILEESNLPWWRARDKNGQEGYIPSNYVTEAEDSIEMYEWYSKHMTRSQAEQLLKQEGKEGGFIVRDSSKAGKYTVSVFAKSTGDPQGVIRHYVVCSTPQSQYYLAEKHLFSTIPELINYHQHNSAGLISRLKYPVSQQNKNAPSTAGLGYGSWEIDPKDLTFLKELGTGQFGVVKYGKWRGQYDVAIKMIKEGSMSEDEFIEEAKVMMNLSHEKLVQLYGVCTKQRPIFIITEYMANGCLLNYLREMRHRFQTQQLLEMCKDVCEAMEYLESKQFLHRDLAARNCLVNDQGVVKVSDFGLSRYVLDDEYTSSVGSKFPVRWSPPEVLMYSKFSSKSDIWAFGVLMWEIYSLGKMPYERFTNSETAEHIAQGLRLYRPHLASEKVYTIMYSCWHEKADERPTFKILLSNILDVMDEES

Row | IC50 | SMILES
1 | 0.869 µM | Nc1c(C(=O)c2cc3ccccc3[nH]2)cnn1-c1ccc(Oc2ccccc2)nc1 [Compound I-2, [5-Amino-1-(6-phenoxy-pyridin-3-yl)-1H-pyrazol-4-yl]-(1H-indol-2-yl)-methanone]
2 | 0.502 µM | Nc1c(C(=O)c2cc3ccccc3[nH]2)cnn1-c1ccc(Oc2ccccn2)cc1 [Compound I-3, {5-Amino-1-[4-(pyridin-2-yloxy)-phenyl]-1H-pyrazol-4-yl}-(1H-indol-2-yl)-methanone]
3 | 21.9 µM | Nc1c(C(=O)c2cc3ccccc3[nH]2)cnn1-c1ccc(Oc2cccnc2)cc1 [Compound I-4, {5-Amino-1-[4-(pyridin-3-yloxy)-phenyl]-1H-pyrazol-4-yl}-(1H-indol-2-yl)-methanone]
4 | 73.9 µM | CC(C)Oc1ccc(-n2ncc(C(=O)c3cc4ccccc4[nH]3)c2N)cc1 [Compound I-11, [5-Amino-1-(4-isopropoxy-phenyl)-1H-pyrazol-4-yl]-(1H-indol-2-yl)-methanone]

The compounds below were run against inactivated state of Bruton's Tyrosine Kinase (Homo sapiens (Human), UniProt Q06187) (assay: Bruton's Tyrosine Kinase (BTK) Inhibition TR-FRET competition assay). Conditions: Kinase Tracer 178, incubated 18-24 h at 14° C.
Chain of inactivated state of Bruton's Tyrosine Kinase (Q06187 whole entry): as above
Type: binding
Excerpt: Calculate percent activity from raw data in cpm percent activity=(sample−bkg)/(total activity−bkg)×100 Calculate IC50 from percent activity, using one-site dose response sigmoidal model y=A+((B−A)/(1+((x/C)^D)))) x=cmpd conc, y=% activity, A=min, B=max, C=IC50, D=1 (hill slope) Bruton's Tyrosine Kinase (BTK) Inhibition TR-FRET (Time Resolved FRET) Assay
This BTK competition assay measures compound potency (IC50) for the inactivated state of Bruton's Tyrosine Kinase using FRET (Förster/Flouresence Resonance Energy Transfer) technology. The BTK-Eu complex was incubated on ice one hour prior to use at a starting concentration of 50 nM BTK-Bioease™: 10 nM Eu-streptavidin (Perkin-Elmer Catalog# AD0062). The assay buffer consisted of 20 mM HEPES (pH 7.15), 0.1 mM DTT, 10 mM MgCl2, 0.5 mg/ml BSA with 3% Kinase Stabilizer (Fremont Biosolutions, Catalog # STB-K02). After 1 h, the reaction mixture from above was diluted 10 fold in assay buffer to make 5 nM BTK: 1 nM Eu-Streptavidin complex (donor fluorophore). 18 μl of a mixture of 0.11 nM BTK-Eu and 0.11 nM Kinase Tracer 178 (Invitrogen, Catalog # PV5593) with BTK-Eu alone as no negative control, was then dispensed into 384-well flat bottom plates (Greiner, 784076). Compounds to be tested in assay were prepared as 10× concentrations and serial dilution in half-log increments was performed in DMSO so as to generate 10 point curves. To initiate the FRET reaction, compounds prepared as 10× stock in DMSO was added to the plates and the plates were incubated 18-24 h at 14° C.
After the incubation the plates were read on a BMG Pherastar Fluorescent plate reader (or equivalent) and used to measure the emission energy from the europium donor fluorophore (620 nm emission) and the FRET (665 nm emission). The negative control well values were averaged to obtain the mean minimum. The positive “no inhibitor” control wells were averaged to obtain the mean maximum. Percent of maximal FRET was calculated using following equation: % max FRET=100×[(FSRcmpd−FSRmean min)/(FSRmean max−FSRmean min)] where FSR=FRET Signal ratio. % Max FRET curves were plotted in Activity Base (Excel) and the IC50(%), hill slope, z′ and % CV were determined. The mean IC50 and standard deviation will be derived from duplicate curves (singlet inhibition curves from two independent dilutions) using Microsoft Excel.

Row | SMILES | FRET IC50 | IC50
5 | Nc1c(C(=O)c2cc3ccccc3[nH]2)cnn1-c1ccc(OC2CCCC2)cc1 [Compound I-12, [5-Amino-1-(4-cyclopentyloxy-phenyl)-1H-pyrazol-4-yl]-(1H-indol-2-yl)-methanone] | > 1 µM | 
6 | N#Cc1cccc(Oc2ccc(-n3ncc(C(=O)c4cc5ccccc5[nH]4)c3N)c(Cl)c2)c1 [Compound I-16, 3-{4-[5-Amino-4-(1H-indole-2-carbonyl)-pyrazol-1-yl]-3-chloro-phenoxy}-benzonitrile] |  | 0.082 µM
7 | Cc1cc(Oc2ccccc2C#N)ccc1-n1ncc(C(=O)c2cc3ccccc3[nH]2)c1N [Compound I-15, 2-{4-[5-Amino-4-(1H-indole-2-carbonyl)-pyrazol-1-yl]-3-methyl-phenoxy}-benzonitrile] |  | 0.007 µM
8 | Nc1c(C(=O)c2cc3ccc(CN4CCOCC4)cc3[nH]2)cnn1-c1ccc(Oc2ccccc2)cc1 [Compound I-19, [5-Amino-1-(4-phenoxy-phenyl)-1H-pyrazol-4-yl]-(6-morpholin-4-ylmethyl-1H-indol-2-yl)-methanone] |  | 0.0005 µM
9 | Cc1cc(Oc2cccc(C(N)=O)c2)ccc1-n1ncc(C(=O)c2nc3ccccc3[nH]2)c1N [Compound I-17, 3-{4-[5-Amino-4-(1H-benzoimidazole-2-carbonyl)-pyrazol-1-yl]-3-methyl-phenoxy}-benzamide] |  | 0.23 µM
10 | Nc1c(C(=O)c2cc3ccccc3[nH]2)cnn1-c1ccc(Oc2ccc(F)c(F)c2)cc1 [Compound I-6, {5-Amino-1-[4-(3,4-difluoro-phenoxy)-phenyl]-1H-pyrazol-4-yl}-(1H-indol-2-yl)-methanone] |  | 1 µM
11 | Cc1cc(Oc2cccc(F)c2F)ccc1-n1ncc(C(=O)c2nc3ccccc3[nH]2)c1N [Compound I-18, {5-Amino-1-[4-(2,3-difluoro-phenoxy)-2-methyl-phenyl]-1H-pyrazol-4-yl}-(1H-benzoimidazol-2-yl)-methanone] |  | 0.005 µM
12 | N#Cc1cccc(Oc2ccc(-n3ncc(C(=O)c4cc5ccc(CN6CCOCC6)cc5[nH]4)c3N)c(Cl)c2)c1 [Compound I-20, 3-{4-[5-Amino-4-(6-morpholin-4-ylmethyl-1H-indole-2-carbonyl)-pyrazol-1-yl]-3-chloro-phenoxy}-benzonitrile] |  | 0.001 µM
13 | CC(C)(C)COc1ccc(-n2ncc(C(=O)c3cc4ccccc4[nH]3)c2N)cc1 [Compound I-13, {5-Amino-1-[4-(2,2-dimethyl-propoxy)-phenyl]-1H-pyrazol-4-yl}-(1H-indol-2-yl)-methanone] | > 1 µM | 
14 | Cc1cc(Oc2cccc(F)c2F)ccc1-n1ncc(C(=O)c2cc3ccccc3[nH]2)c1N [Compound I-14, {5-Amino-1-[4-(2,3-difluoro-phenoxy)-2-methyl-phenyl]-1H-pyrazol-4-yl}-(1H-indol-2-yl)-methanone] |  | 0.003 µM

The next lines start with the values.

Row | FRET IC50 | IC50 | SMILES
15 |  | 0.146 µM | COc1cc(Oc2ccccc2)ccc1-n1ncc(C(=O)c2cc3ccccc3[nH]2)c1N [Compound I-9, [5-Amino-1-(2-methoxy-4-phenoxy-phenyl)-1H-pyrazol-4-yl]-(1H-indol-2-yl)-methanone]
16 |  | 0.041 µM | Nc1c(C(=O)c2cc3ccccc3[nH]2)cnn1-c1ccc(Oc2ccccc2)c(F)c1 [Compound I-1, [5-Amino-1-(3-fluoro-4-phenoxy-phenyl)-1H-pyrazol-4-yl]-(1H-indol-2-yl)-methanone]
17 |  | 0.059 µM | Nc1c(C(=O)c2cc3ccccc3[nH]2)cnn1-c1ccc(Oc2ccccc2)c(O)c1 [Compound I-8, [5-Amino-1-(3-hydroxy-4-phenoxy-phenyl)-1H-pyrazol-4-yl]-(1H-indol-2-yl)-methanone]
18 |  | 0.216 µM | Nc1c(C(=O)c2cc3ccccc3[nH]2)cnn1-c1ccc(Oc2ccccc2)c(Cl)c1 [Compound I-5]
19 |  | 0.162 µM | Nc1c(C(=O)c2cc3ccccc3[nH]2)cnn1-c1ccc(Oc2ccccc2)cc1O [Compound I-10, [5-Amino-1-(2-hydroxy-4-phenoxy-phenyl)-1H-pyrazol-4-yl]-(1H-indol-2-yl)-methanone]
